From patent publication US20140128352A1, “COMPOUNDS AND METHODS FOR MODULATING MITOCHONDRIAL METABOLISM AND REACTIVE OXYGEN SPECIES PRODUCTION” (Buck Institute for Research on Aging, priority 2012, published 2014)
Entries after “also recorded” stand apart in the source; their conditions may differ.

Legend:
site IQ = test: ROS production with NADH and cytochrome b566 reduction states, mitochondria respiring on CI substrates; type: biochemical, rat; settings: 2.5 uM, ATP synthesis restricted
Description: The contribution of site IQ to total ROS production under “normal” circumstances (e.g. when electrons enter CI primarily in the forward direction) remains contentious. […] A possible explanation for this difference is the leak of electrons from site IQ as both Q-pool reduction and PMF remained high in the absence of energy production. To test if site IQ is indeed active under such conditions, we used Compound No. 4 to non-invasively probe mitochondrial ROS production in this system. […] It is believed that even under extreme conditions in which forward electron flow through CI dominates, this provides evidence that site IQ can be a relevant source of ROS.
The rate of ROS production from site IF is linked to the reduction state of the NAD(P)H pool in the mitochondrial matrix (Treberg et al., 2011; Quinlan et al, submitted). Therefore, to evaluate the mechanism of action of putative IF ROS inhibitors, the effect of candidate compounds on the relationship between site IF ROS production and NAD(P)H reduction was tested. NAD(P)H reduction was monitored in isolated mitochondria (0.3 mg/mL) on a Varian Cary Eclipse fluorimeter (ex 365/em 450 nm) as described by Treberg et al., 2011 except the reduction state was slowly titrated with increasing rotenone (0.08 to 4 uM) in the presence of saturating malate (5 mM) and the uncoupler FCCP. Glutamate (5 mM) was added to achieve 100% reduction. […]

complex I = test: Rate of NAD(P)H reduction via complex I versus observed ROS production; type: biochemical, rat; settings: 2.5 uM; succinate with low glutamate; FIG. 2B
Method: To compare candidate IQ ROS inhibitors with mitochondrial inhibitors known to disrupt complex I activity (e.g. rotenone) or oxidize the electron transport chain (e.g. the uncoupler FCCP), the rate of NAD(P)H reduction via complex I was measured when isolated mitochondria were provided with saturating concentrations of the complex II substrate succinate (5 mM) and subsaturating levels of glutamate (1 mM) to facilitate full activation of complex II by oxaloacetate removal. […] These conditions allow electron and proton fluxes through complex Ito reverse and be directed predominantly toward the matrix. Addition of succinate causes a rapid increase in the reduction state of the matrix NAD(P)H pool that can be monitored as described above. The rate of NAD(P)H reduction is therefore a measure of electron flux through complex I for which direct comparisons can be made under identical conditions to effects on rates of ROS production.

site IF = molecular target: T1, site IF (Rattus norvegicus, UniProt Q5XIH3); test: Relationship of site IF ROS production to steady state matrix NAD(P)H reduction; type: biochemical; settings: high NADH reduction (>90%)
T1 construct: freshly isolated muscle mitochondria were assayed; from tissue; host or cells: rat skeletal muscle mitochondria (Wistar, Harlan Laboratories)
T1 sequence (Q5XIH3 21-464 limits assumed): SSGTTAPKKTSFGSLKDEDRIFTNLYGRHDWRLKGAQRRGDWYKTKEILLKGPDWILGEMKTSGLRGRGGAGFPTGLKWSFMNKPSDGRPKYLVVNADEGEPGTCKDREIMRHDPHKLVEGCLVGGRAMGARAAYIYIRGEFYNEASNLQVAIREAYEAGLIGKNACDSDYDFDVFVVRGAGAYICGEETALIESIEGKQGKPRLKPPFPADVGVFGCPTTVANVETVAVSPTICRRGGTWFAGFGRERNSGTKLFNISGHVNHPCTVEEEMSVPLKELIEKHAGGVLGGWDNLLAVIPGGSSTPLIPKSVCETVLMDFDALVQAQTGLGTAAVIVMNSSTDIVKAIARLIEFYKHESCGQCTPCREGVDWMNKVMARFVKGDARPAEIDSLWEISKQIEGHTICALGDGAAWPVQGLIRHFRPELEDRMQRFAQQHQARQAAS
Method: The rate of ROS production from site IF is linked to the reduction state of the NAD(P)H pool in the mitochondrial matrix (Treberg et al., 2011; Quinlan et al, submitted). Therefore, to evaluate the mechanism of action of putative IF ROS inhibitors, the effect of candidate compounds on the relationship between site IF ROS production and NAD(P)H reduction was tested.

mitochondrial GPDH = molecular target: T2, mitochondrial GPDH (Rattus norvegicus, UniProt P35571); test: Mitochondrial GPDH activity (DCPIP reduction); type: biochemical
T2 construct: The activity of GPDH in intact mitochondria (0.3 mg/mL) was measured; from tissue; host or cells: rat skeletal muscle mitochondria (Wistar, Harlan Laboratories)
T2 sequence (P35571 43-727): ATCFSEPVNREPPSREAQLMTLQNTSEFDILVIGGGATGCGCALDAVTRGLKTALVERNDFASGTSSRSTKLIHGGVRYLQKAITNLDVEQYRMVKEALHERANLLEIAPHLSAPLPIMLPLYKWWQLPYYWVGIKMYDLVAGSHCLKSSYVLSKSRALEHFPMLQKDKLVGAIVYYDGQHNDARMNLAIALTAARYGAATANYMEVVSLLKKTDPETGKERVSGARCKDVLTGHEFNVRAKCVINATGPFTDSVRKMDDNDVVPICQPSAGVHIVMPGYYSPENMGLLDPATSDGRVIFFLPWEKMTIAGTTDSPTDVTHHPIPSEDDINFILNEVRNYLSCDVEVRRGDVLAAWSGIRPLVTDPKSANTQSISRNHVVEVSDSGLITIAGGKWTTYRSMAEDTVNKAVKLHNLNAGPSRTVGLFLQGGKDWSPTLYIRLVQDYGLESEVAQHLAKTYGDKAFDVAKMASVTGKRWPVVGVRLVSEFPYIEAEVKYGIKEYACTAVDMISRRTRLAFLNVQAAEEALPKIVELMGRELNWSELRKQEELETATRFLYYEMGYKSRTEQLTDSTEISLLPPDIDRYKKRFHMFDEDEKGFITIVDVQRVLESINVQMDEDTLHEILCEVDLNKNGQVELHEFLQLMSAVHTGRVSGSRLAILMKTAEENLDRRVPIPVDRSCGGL

O=[N+]([O-])c1ccc(Oc2ccc(S(=O)(=O)NC3CCCCC3)cc2)cc1 [Compound 4]
observed ROS production and NADH / b566 reduction states (site IQ): lowered the observed ROS production without any changes to the NADH or b566 reduction states
suppression of observed ROS before any sign of altered flux through CI to NADH (complex I): at least 45%

Cc1ccc(C)c(CN(CCCN(C)C)CCCN(C)C)c1 [Compound 32]
ROS production from site IF in relation to NADH reduction (site IF): lowers the amount of ROS production from site IF as the matrix NADH pool becomes strongly reduced; also recorded: the expected ROS production was suppressed

O=C(O)CCC(=O)Nc1ccc(-c2nc3cc4ccccc4cc3[nH]2)cc1 [Compound 61]
kinetics of inhibition of GPDH activity (mitochondrial GPDH): mixed inhibition kinetics
potency at inhibiting GPDH activity relative to Compound No. 46 (mitochondrial GPDH): at least 6 times
